According to patent US9867798B2, “Ladostigil therapy for immunomodulation” (priority 2012, dated 2018):

Legend:
[1] = test system: mice with DSS-induced colitis; assay: Acute colitis induced by DSS in mice: body weight, stool, bleeding, DAI, colon length; format: in vivo, BALB/c OlaHsd mice
Procedure: BALB/c OlaHsd male mice aged 8-9 weeks and weighing 25-30 g were purchased from Harlan (Jerusalem, Israel) and housed in standard cages of up to 5 per cage in the pathogen free Animal Facility of the Institute for Drug Research. All experiments were performed in accordance with the Principles of Laboratory Animal Care (NIH publication #85-23, revised 1985) protocols MD-09-12197-4. Acute colitis was induced in mice by administration of 5% DSS solution (M.Wt.=[…], MP Biomedicals, LLC, Solon, Ohio, USA) in water for 8 days. The DSS solution was freshly prepared every day. Mice were provided with food and water or DSS solution ad libitum during the experiment. They were divided into groups of 10 as follows: Vehicle control group: mice drank water and were given water (1 ml/100 gm) once daily by gavage for 8 days; Drug control group: mice drank water and were given ladostigil (10 mg/kg) by gavage once daily for 8 days. DSS untreated group: mice drank 5% DSS for 7 days and water on the 8th day and were given water (1 ml/100 g) once daily by gavage for 8 days. Drug treated group: mice drank 5% DSS followed by water as above and were given ladostigil (5 or 10 mg/kg) by gavage once daily for 8 days. The volume of 5% DSS solution consumed was measured for each group of mice and the average volume/mouse was calculated. On the eighth day, the mice were anesthetized by CO2 and sacrificed by cervical dislocation 2 h after the last dose of ladostigil. Samples of colon and spleen were taken for measurement of cytokines MPO, cytokines and ChE activity.
Body weight, stool consistency and the presence of blood in the stools was recorded daily for each mouse. […] The score ranged between 0-4 for all three parameters and was composed as follows: Weight loss: none=0, 1-5%=1, 5-10%=2, 10-20%=3, >20%=4. Percent of weight loss on days 7 and 8 relative to the first day was calculated for all the groups. […] Bleeding: none=0, hemoccult=2, gross bleeding=4. The maximum DAI score was 4 based on a combination of scores of weight loss (relative to that on the first day of the experiment), stool consistency and bleeding, divided by 3. After sacrifice the length of the colon segment from the cecum to the rectum was measured.

[2] = test system: LPS-induced TNF-α, IL-1β and IL-6 in spleen; assay: Cytokines in spleen of mice injected with LPS (Example 4); format: in vivo, Balb/c mice
Procedure: Male Balb/c mice (aged 6-7 weeks, weighing 25-30 gm) were given ladostigil 10 mg/kg by gavage or 1 ml/kg saline followed 15 min later by an intra-peritoneal (i.p.) injection of LPS (10 mg/kg). For measurement of cytokine levels in the spleen and blood the mice were sacrificed 4 h after drug administration, blood collected in heparinized tubes and centrifuged to obtain plasma and the spleen was rapidly removed and weighed. Plasma and spleen were frozen in liquid nitrogen and stored at −80° C. until use.
For measurement of cytokine levels the tissue was diluted in PBS containing 0.8% NaCl, 0.144% NaHPO4, 0.024% KH2PO4 and protease inhibitor cocktail (Sigma Israel, P8340) and homogenized in an Ultra-TURRAX® homogenizer at a speed of 24,000 rpm, centrifuged at 14000 g for 15 min at 4° C. Cytokines were detected in the supernatant by using ELISA kits for cytokines IL-1β, IL-6, and TNF-α(Biolegend) following the manufacturer's protocol. Each experiment was performed 4 times with 6 replicate measures in each experiment. Protein concentration in each sample was determined with Bradford reagent (Bio-RAD, 500-0006).

[3] = test system: LPS-induced TNF-α, IL-1β and IL-6 in spleen; assay: Cytokines in spleen of mice injected with LPS, comparison to rivastigmine (Example 5); format: in vivo, Balb/c mice; details: for IL-1β in spleen / IL-6 in spleen / TNF-α in spleen: four hours
Procedure: Male Balb/c mice (aged 8-9 weeks, weighing 25-30 gm) were given ladostigil (10 or 20 mg/kg) or rivastigmine (0.5 or 1 mg/kg) by gavage, or water (1 ml/100 g), followed 15 min later by an intra-peritoneal injection of LPS (10 mg/kg). Control mice were given LPS and water by gavage (1 ml/100 g). For measurement of cytokine levels in the spleen and blood the mice were sacrificed 4 h after drug administration, blood collected in heparinized tubes and centrifuged to obtain plasma and the spleen was rapidly removed and weighed. Plasma and spleen were frozen in liquid nitrogen and stored at −80° C. until use. For measurement of cytokine levels, the tissue was diluted in PBS containing 0.8% NaCl, 0.144% NaHPO4, 0.024% KH2PO4 and protease inhibitor cocktail (Sigma Israel, P8340) and homogenized in an Ultra-TURRAX® homogenizer at a speed of 24,000 rpm, centrifuged at 14000 g for 15 min at 4° C. Cytokines were detected in the supernatant by using ELISA kits for cytokines IL-1β, IL-6, and TNF-α (Biolegend) following the manufacturer's protocol. Each experiment was performed twice with 8 replicate measures in each experiment. Protein concentration in each sample was determined with Bradford reagent (Bio-RAD, 500-0006).

AChE = details: 51 and 70.1 mg/kg/day, doses effective in ameliorating EAE; cited from earlier work
[4] = 10 mg/kg by gavage + LPS 10 mg/kg i.p., four hours
[5] = ladostigil 10 mg/kg + LPS 10 mg/kg
[6] = ladostigil 20 mg/kg + LPS 10 mg/kg

## C#CCN[C@@H]1CCc2ccc(OC(=O)N(C)CC)cc21 [Ladostigil, R(+)-6-(N-methyl, N-ethyl-carbamoyloxy)-N′-propargyl-1-aminoindan]
[1]; 5% DSS, 5 and 10 mg/kg, untreated decrease >30%
  Decrease in colon length and signs of hyperemia and inflammation: significantly less
[1]; 5% DSS, both doses (5 and 10 mg/kg), untreated loss 15%
  Reduction of DSS-induced weight loss: ~50%
[1]; 5% DSS, day 7, both doses (5 and 10 mg/kg)
  Diarrhea: significantly decreased
[1]; 5% DSS, day 8, 5 mg/kg
  Bleeding: significantly decreased
[1]; 5% DSS, days 7 and 8, drug treated groups vs DSS-water, p<0.01
  Disease activity index (DAI): significantly different from that of the group drinking DSS given water
[1]; mice receiving 5 or 10 mg/kg by gavage, no DSS
  Body weight increase during 8 days: 2-3%
[2]; 10 mg/kg + LPS, Example 4
  Reduction of IL-1β levels in spleen: 28.1%
  Reduction of IL-6 levels in spleen: 46.7%
  Reduction of TNF-α levels in spleen: 49.6%
[2]; [4]
  IL-1β in spleen: 1.37 ± 0.04 ng/mg protein
  IL-6 in spleen: 179 ± 20 pg/mg protein
  TNF-α in spleen: 8.3 ± 0.9 pg/mg protein
[2]; oral dose prior to LPS, Example 4 conclusion
  Reduction of elevation of pro-inflammatory cytokines in the spleen: 28-50%
[3]; ladostigil 10 mg/kg + LPS
  Reduction of IL-1β levels in spleen: 31.1±4.3%
  Reduction of IL-6 levels in spleen: 50.0±7.2%
  Reduction of TNF-α levels in spleen: 49.7±7.6%
[3]; [5]
  IL-1β in spleen: 401 ± 40 pg/mg
  IL-6 in spleen: 351 ± 50 pg/mg
  TNF-α in spleen: 9.6 ± 1.5 pg/mg
[3]; ladostigil 20 mg/kg + LPS
  Effect on TNF-α or IL-1β levels in spleen: had no effect
  Reduction of IL-6 levels in spleen: 42.7±8.3%
[3]; [6]
  IL-1β in spleen: 591 ± 17 pg/mg
  IL-6 in spleen: 454 ± 59 pg/mg
  TNF-α in spleen: 17.1 ± 1.9 pg/mg
AChE
  Inhibition of AChE in blood: 60-65%
  Inhibition of AChE in brain: 47-52%
